Structures are written as SMILES.

Drawing on paper PMC10353187, “Discovery of a new potent oxindole multi-kinase inhibitor among a series of designed 3-alkenyl-oxindoles with ancillary carbonic anhydrase inhibitory activity as antiproliferative agents” (BMC Chemistry, 2023), this text covers inhibition for two molecules.

What all share (experiment): NCI-60 single-dose antiproliferative assay (SRB)
Holding throughout (type): cell-based

The test system of one assay is MDA-MB-231/ATCC. To be noted: Homo sapiens, 10 μM single dose, Breast cancer, read-out: Cell Growth inhibition Percent. In a few lines:
(§1)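 Plating at 5000–40,000 cells/well by doubling time; 24 h preincubation; a time-zero plate fixed at drug addition. Compound added at 10 µM final, incubated 48 h. Protein stained with SRB, measured at 515 nm, and GI% derived from Tz, C and Ti.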

A further assay has as its system EKVX. To be noted: Homo sapiens, 10 μM single dose, Non-small cell lung cancer, read-out: Cell Growth inhibition Percent. The method, boiled down:
as §1

For another assay, the system named is PC-3. To be noted: Homo sapiens; 10 μM single dose; PC-3, Prostate cancer; read-out: Cell Growth inhibition Percent. In a few lines:
as §1

Another assay concerns MCF7. Conditions: Homo sapiens; 10 μM single dose; MCF7, Breast cancer; read-out: Cell Growth inhibition Percent. In a few lines:
as §1

Another assay concerns HOP-62. Conditions: Homo sapiens; 10 μM single dose; HOP-62, Non-small cell lung cancer; read-out: Cell Growth inhibition Percent. The method, boiled down: as §1
The test system of a further assay is M14. Conditions: Homo sapiens; 10 μM single dose; M14, Melanoma; read-out: Cell Growth inhibition Percent. The method, boiled down: as §1
A further assay relates to LOX IMVI. Conditions: Homo sapiens, 10 μM single dose, Melanoma, read-out: Cell Growth inhibition Percent. The method, boiled down:
as §1

The next assay relates to HOP-92. Conditions: Homo sapiens; 10 μM single dose; HOP-92, Non-small cell lung cancer; read-out: Cell Growth inhibition Percent. In a few lines: (§2)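 Single dose 10 µM (final), 48 h, 37 °C, 5% CO2; RPMI 1640/5% FBS. Endpoint: TCA fixation, 0.4% SRB, absorbance 515 nm. % growth = (Ti–Tz)/(C–Tz)×100, or (Ti–Tz)/Tz×100 when Ti < Tz; reported as GI%.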
A further assay concerns NCI-H226. To be noted: Homo sapiens; 10 μM single dose; NCI-H226, Non-small cell lung cancer; read-out: Cell Growth inhibition Percent. In a few lines:
as §1

The next assay deals with OVCAR-4. Conditions: Homo sapiens; 10 μM single dose; OVCAR-4, Ovarian Cancer; read-out: Cell Growth inhibition Percent. In a few lines: as §1
In the next assay the test system is KM12. Conditions: Homo sapiens; 10 μM single dose; KM12, Colon cancer; read-out: Cell Growth inhibition Percent. The method, boiled down: as §2
For the next assay, the system named is SF-268. To be noted: Homo sapiens; 10 μM single dose; SF-268, CNS cancer; read-out: Cell Growth inhibition Percent. In a few lines: as §1
A further assay relates to NCI-H23. To be noted: Homo sapiens; 10 μM single dose; NCI-H23, Non-small cell lung cancer; read-out: Cell Growth inhibition Percent. The method, boiled down:
as §2

Another assay deals with SNB-75. Conditions: Homo sapiens; 10 μM single dose; SNB-75, CNS cancer; read-out: Cell Growth inhibition Percent. In a few lines: as §1
The subject of another assay is ACHN. To be noted: Homo sapiens, 10 μM single dose, Renal cancer, read-out: Cell Growth inhibition Percent. In a few lines: as §1
Another assay concerns IGROV1. To be noted: Homo sapiens, IGROV-1; 10 μM single dose; IGROV1, Ovarian Cancer; read-out: Cell Growth inhibition Percent. In a few lines: as §1
A further assay has as its system CAKI-1. To be noted: Homo sapiens; 10 μM single dose; CAKI-1, Renal cancer; read-out: Cell Growth inhibition Percent. The method, boiled down:
as §1

Another assay deals with SR. To be noted: Homo sapiens, 10 μM single dose, Leukemia, read-out: Cell Growth inhibition Percent. The method, boiled down:
as §1

As usually defined, the inhibition is how much of the control response was suppressed. Turning to `O=C1Nc2ccccc2C1=CNc1ccc(CNc2ccc(S(=O)(=O)Nc3ncccn3)cc2)cc1` [Compound 11b, 4-{[4-({[2-Oxoindolin-3-ylidene]methyl}amino)benzyl]amino}-N-(pyrimidin-2-yl)benzenesulfonamide], the inhibition at 10 µM was determined as 8.34% with MDA-MB-231/ATCC; 16% in the assay with EKVX; 14.2% in the assay on PC-3; 37.2% with MCF7; 11.3% with HOP-62; 0.4% with M14. The inhibition at 10 µM in the assay on LOX IMVI is 8.3%; in the assay with HOP-92, 15.4%; in the assay with NCI-H226, 16.8%; in the assay with OVCAR-4, 11.5%; in the assay on KM12, 77.3%; in the assay with SF-268, 1.02%. Moreover, the inhibition at 10 µM came out at 17.4% with NCI-H23; 16.6% in the assay with SNB-75; 16.7% in the assay on ACHN; 23.5% in the assay on IGROV1; 48.4% in the assay on CAKI-1; 42.2% in the assay with SR.
Turning to `O=C(Nc1ccc(NC=C2C(=O)Nc3ccccc32)cc1)Nc1nccs1` [Compound 15c, 1-{4-[((2-Oxoindolin-3-ylidene)methyl)amino]phenyl}-3-(thiazol-2-yl)urea], the inhibition at 10 µM in the assay with MDA-MB-231/ATCC was found to be 52%; with EKVX, 65.4%; in the assay with PC-3, 31.4%; in the assay on MCF7, 77.3%; in the assay with HOP-62, 62.7%; in the assay with M14, 81.5%. Besides, the inhibition at 10 µM with LOX IMVI came out at 64.9%; with HOP-92, 50.2%; in the assay with NCI-H226, 70%; in the assay with OVCAR-4, 59.4%; in the assay with KM12, 40.8%; with SF-268, 22.8%. In addition, the inhibition at 10 µM in the assay with NCI-H23 is 62.2%; in the assay with SNB-75, 66.6%; with ACHN, 59.3%; with IGROV1 it was 70.5%; in the assay with CAKI-1 it was 67.1%; in the assay on SR it was 89.3%.
